Test results reported in patent US12121500B2, “Inhibitors of Bunyaviridae and uses thereof” (priority 2020, dated 2024).
≈ marks a conversion by molar mass, not a printed value. Like-named read-outs stand apart in the source and are kept apart here.

Tests used:
RVFV strain MP12 = test: microbe, parasite or virus in culture; format: cell-based, Rift Valley Fever Virus; conditions: for EC50: read-out: Estimated EC50
RVFV [1] = test: microbe, parasite or virus in culture; format: cell-based, Rift Valley Fever Virus
human ribonuclease H1 = target: T1, human ribonuclease H1 (Homo sapiens, UniProt O60930); test: biochemical; format: biochemical
T1 construct: made in house; host or cells: E. coli
T1 sequence (O60930 1-286): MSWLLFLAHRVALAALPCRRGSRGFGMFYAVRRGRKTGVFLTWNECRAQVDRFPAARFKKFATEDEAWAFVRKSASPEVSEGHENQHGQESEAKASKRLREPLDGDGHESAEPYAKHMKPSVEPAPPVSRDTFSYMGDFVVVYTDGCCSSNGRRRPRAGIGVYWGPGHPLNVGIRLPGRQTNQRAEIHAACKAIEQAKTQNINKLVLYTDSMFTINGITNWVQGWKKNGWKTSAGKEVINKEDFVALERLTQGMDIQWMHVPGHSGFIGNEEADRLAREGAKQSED

Staphylococcus spp. = test: Inhibition of Staphylococcus spp. growth, broth microdilution; format: cell-based, S. saprophyticus or S. aureus; conditions: 16-24 hours, Mueller-Hinton broth, — = no measurable MIC80; for MIC80: Staphylococcus
Escherichia coli = test: Inhibition of Escherichia coli growth, broth microdilution; format: cell-based; conditions: 16-24 hours, Mueller-Hinton broth, — = inactive; for MIC80: Escherichia coli, read-out: E. coli (MIC80)
C. neoformans = test: Inhibition of C. neoformans growth, limiting dilution assay; format: cell-based, Cryptococcus neoformans; conditions: 48 hours at 35° C., YNB-02; for MIC80: Cryptococcus neoformans, read-out: C. neoformans (MIC80)
in vitro [2] = conditions: African green monkey
[3] = Quantitative cytotoxicity in Vero cells, crystal violet staining of EC50 plates; conditions: African green monkey
RVFV [4] = test: microbe, parasite or virus in culture; format: cell-based, Rift Valley Fever Virus; remark: listed apart in the source
in vitro [5] = conditions: human
HepDES19 = test: Cytotoxicity in HepDES19 cells, MTS assay; conditions: read-out: CC50 HepDES19; HepDES19 cells, 3 days, MTS; * marks limit value
[6] = Cytotoxicity in HepDES19 cells, MTS assay; conditions: human, HepDES19 cells (HepG2-derived hepatoblastoma cell line)
Vero cells [7] = test: Quantitative cytotoxicity in Vero cells, crystal violet staining of EC50 plates; conditions: read-out: CC50 Vero, 1 day of compound exposure, crystal violet, * marks limit values
Vero cells [8] = tested on: Vero cells
[9] = Rift Valley fever virus, Vero, 24 h, read-out: RVFV (EC50, μM)
[10] = Rift Valley fever virus, A549, 24 h

| SMILES | EC50 (RVFV strain MP12; Rift Valley fever virus, Vero) [µM] | EC50 (RVFV [1]; [9]) [µM] | IC50 (human ribonuclease H1) [µM] | MIC80 (Staphylococcus spp.) [µM] | MIC80 (Escherichia coli) [µM] | MIC80 (C. neoformans) [µM] | CC50 (in vitro [2]) [µM] | CC50 at 1 day [3] [µM] | CC50 (HepDES19) [µM] | EC50 (RVFV [1]; read-out: RVFV (EC50)) [µM] | IC50 (human ribonuclease H1; read-out: Human RNaseH1 (IC50)) [µM] | Staphylococcus spp. (MIC80, μM) (Staphylococcus spp.) | also measured |
| --- | --- | --- | --- | --- | --- | --- | --- | --- | --- | --- | --- | --- | --- |
| Cc1cc(O)c(=O)c(O)cc1C(=O)c1ccccc1O [Compound 311] | 3 | 11.6 | 26 | 67 (≈ 18.2 µg/mL) | 30 (≈ 8.17 µg/mL) | 15 (≈ 4.08 µg/mL) | 115 | > 250 | – | – | – | – | – |
| Cc1cc(O)c(=O)c(O)cc1C(=O)NC(CCC(=O)OC(C)(C)C)C(=O)OC(C)(C)C (stereo not drawn) [Compound 867] | 7 | 8.7 | > 500 | – | – | 9 (≈ 3.94 µg/mL) | ≥ 120 | > 120 | 5.2 | – | – | – | EC50 (RVFV [4]; [10]): 33 µM; CC50 (in vitro [5]): ≥ 120 µM |
| Cc1cc(O)c(=O)c(O)cc1C(=O)NCc1ccccc1 [Compound 388] | 19 | 9 | 166 | 67 (≈ 19.1 µg/mL) | 67 (≈ 19.1 µg/mL) | 11 (≈ 3.14 µg/mL) | – | 239 | – | – | – | – | activity against RVFV in the primary screen, in words (RVFV strain MP12): active; CC50 at 3 days [6]: 19.8 µM |
| Cc1ccc(/C=C/C(=O)c2ccccc(=O)c2O)cc1 [Compound 340] | – | – | – | – | – | – | – | – | 18.7 | 27.3 | > 500 | – | EC50 (RVFV strain MP12): 3 µM; C. neoformans (MIC80, μM) (C. neoformans): 49 µM; CC50 (Vero cells [7]): 70 µM |
| CCc1cccc(N=C(C)c2c(C)cc(=O)n(O)c2O)c1 [Compound 518] | – | – | – | – | – | – | – | – | 91.4 | 20 | 436 | 67 µM | EC50 (RVFV strain MP12): 7 µM; C. neoformans (MIC80, μM) (C. neoformans): 24 µM; EC50 (RVFV [4]; read-out: EC50): 17.2 µM; CC50 (Vero cells [8]): ≥ 120 µM; CC50 (A549 cells): 16.5 µM; CC50 (Vero cells [7]): > 120 µM |
| Cc1cc(O)c(=O)c(O)c(O)c1C(=O)c1ccc(-c2ccccc2)cc1 [Compound 362] | 6 | 2.6 | – | – | – | 24 (≈ 8.36 µg/mL) | – | 77.8 | 5.4 | – | 212 | – | E. coli (MIC80, μM) (Escherichia coli): inactive |
| CCCCSc1ccc(SCCCC)c(O)c(=O)c1O [Compound 694] | 6 | 3.7 | > 500 | 9 (≈ 2.83 µg/mL) | – | 2.3 (≈ 0.723 µg/mL) | ≥ 120 | 22.1 | 1.8 | – | – | – | – |
| O=C(Cc1ccccc1)Sc1cccccc1=O [Compound 680] | – | – | – | – | – | – | – | – | 95.6 | > 120 | 652 | 13 µM | EC50 (RVFV strain MP12): 0.3 µM; E. coli (MIC80, μM) (Escherichia coli): 30 µM; C. neoformans (MIC80, μM) (C. neoformans): 0.40 µM; EC50 (RVFV [4]; read-out: EC50): 11.6 µM; CC50 (Vero cells [8]): 0.9 µM; CC50 (A549 cells): ≥ 120 µM; CC50 (Vero cells [7]): > 120 µM |
| CC[C@H](C)[C@H](NC(=O)OCC1c2ccccc2-c2ccccc21)C(=O)Sc1cccccc1=O [Compound 686] | – | – | – | – | – | – | – | – | 42.6 | > 120 | > 500 | 30 µM | EC50 (RVFV strain MP12): 2 µM; C. neoformans (MIC80, μM) (C. neoformans): 0.85 µM; EC50 (RVFV [4]; read-out: EC50): 7.87 µM; CC50 (Vero cells [8]): ≥ 120 µM; CC50 (A549 cells): 67.6 µM; CC50 (Vero cells [7]): > 120 µM |
| C/C(=N\c1ccc(Cl)c(Cl)c1)c1c(C)cc(O)n(O)c1=O [Compound 670] | 10 | 14 to 20 | – | – | – | 69 (≈ 22.6 µg/mL) | ≥ 120 | > 120 | 69 | 14 | 356 | – | EC50 (RVFV [4]; [10]): 15.3 µM; CC50 (in vitro [5]): ≥ 120 µM |
| Cc1cc(O)c(=O)c(O)cc1C(=O)N1CCN(C(c2ccc(F)cc2)c2ccc(F)cc2)CC1 [Compound 1017] | 3 | 8 | – | – | – | 6 (≈ 2.8 µg/mL) | ≥ 120 | 54.7 | 3.9 | – | – | – | – |
| Cc1cc(O)c(=O)c(O)cc1C(=O)c1ccc(-c2ccncc2)cc1 [Compound 260] | – | 31.6 | 277 | – | – | 50 (≈ 16.7 µg/mL) | – | > 250 | – | – | – | poorly active or inactive | Human RNaseH1 (IC50, μM) (human ribonuclease H1): poorly active or inactive; E. coli (MIC80, μM) (Escherichia coli): poorly active or inactive; CC50 at 3 days [6]: 45 µM |
| Cc1cc(O)c(=O)c(O)cc1C(=O)c1cccc(Br)c1 [Compound 359] | 4 | 5.1 | – | – | – | 24 (≈ 8.04 µg/mL) | – | 170 | 19.4 | – | – | – | – |
| CC(C)Sc1ccc(SC(C)C)c(O)c(=O)c1O [Compound 696] | 12 | 6 | – | 13 (≈ 3.72 µg/mL) | 20 (≈ 5.73 µg/mL) | 1.5 (≈ 0.43 µg/mL) | 118 | 56.5 | 14.1 | – | – | – | – |
| Cc1cc(O)c(=O)c(O)cc1C(=O)Nc1ccccc1 [Compound 389] | 16 | 8.8 | 309 | 44 (≈ 11.9 µg/mL) | 44 (≈ 11.9 µg/mL) | 3.5 (≈ 0.949 µg/mL) | – | > 250 | – | – | – | good to moderate activity | activity against RVFV in the primary screen, in words (RVFV strain MP12): active; Human RNaseH1 (IC50, μM) (human ribonuclease H1): nearly inactive; E. coli (MIC80, μM) (Escherichia coli): good to moderate activity; CC50 at 3 days [6]: 26.5 µM |
| Cc1cc(O)c(=O)c(O)cc1C(=O)c1cccs1 [Compound 308] | 2 | 0.54 | – | 44 (≈ 11.5 µg/mL) | 25 (≈ 6.56 µg/mL) | 11 (≈ 2.89 µg/mL) | 111 | 217 | – | – | 46 | – | EC50 (RVFV [4]; [10]): 8.36 µM; EC50 (RVFV [4]; Rift Valley fever virus, A549, 24 h, read-out: EC50 in A549 cells): 8.4 µM; CC50 (in vitro [5]): 119 µM |
